According to US20130102009A1, “SIRTUIN ACTIVATORS AND ACTIVATION ASSAYS” (priority 2010, published 2013):
“And” between values parts separate entries of the source, which are not always exact repeats. Identical values can stand only once. Peptide text beside a SMILES is read from it. * marks the point of attachment. AMC = Cc1cc(=O)oc2cc(N*)ccc12

Columns and labels:
Assay type in all cases: biochemical
[1] = molecular target: T1, SIRT1 (Homo sapiens, UniProt Q96EB6); assay: Mass spectroscopic kinetic assay of SIRT1-catalyzed deacetylation of 20mer peptides; settings: for Effect on the deacetylation of des(biotin,TAMRA)-peptide: substrate des(biotin,TAMRA)-peptide; for RVmax for activation of the deacetylation of desTAMRA-peptide / EC50: substrate desTAMRA-peptide, fit to eq (1); for EC50: read-out: EC50 for activation of the deacetylation of desTAMRA-peptide; for Ki,app for inhibition of the deacetylation of p53-20 mer / Ki: substrate p53-20 mer, RV=1/(1+([X]o/Ki,app)); for Ki: read-out: Ki,app for inhibition of the deacetylation of p53-20 mer
T1 sequence (Q96EB6 1-747): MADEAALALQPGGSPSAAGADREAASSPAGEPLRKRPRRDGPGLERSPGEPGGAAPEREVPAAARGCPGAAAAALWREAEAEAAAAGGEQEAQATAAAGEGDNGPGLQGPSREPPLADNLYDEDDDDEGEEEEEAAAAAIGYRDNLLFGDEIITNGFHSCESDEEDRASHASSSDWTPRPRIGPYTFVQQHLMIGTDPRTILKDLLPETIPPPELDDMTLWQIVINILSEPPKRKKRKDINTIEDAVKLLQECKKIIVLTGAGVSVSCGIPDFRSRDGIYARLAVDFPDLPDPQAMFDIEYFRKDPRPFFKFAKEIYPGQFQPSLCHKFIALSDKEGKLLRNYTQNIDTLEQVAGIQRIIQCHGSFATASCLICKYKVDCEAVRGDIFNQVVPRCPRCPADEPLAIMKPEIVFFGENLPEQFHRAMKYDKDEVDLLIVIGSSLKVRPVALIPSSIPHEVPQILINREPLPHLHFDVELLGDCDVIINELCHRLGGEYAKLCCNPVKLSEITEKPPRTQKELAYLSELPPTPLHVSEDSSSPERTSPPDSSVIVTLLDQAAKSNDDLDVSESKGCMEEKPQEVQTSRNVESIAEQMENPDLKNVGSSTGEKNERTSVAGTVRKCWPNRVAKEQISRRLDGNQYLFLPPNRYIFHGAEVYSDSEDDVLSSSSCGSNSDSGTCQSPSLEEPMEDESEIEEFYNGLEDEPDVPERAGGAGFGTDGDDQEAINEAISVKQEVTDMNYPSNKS
Procedure: Bovine glutamate dehydrogenase (GDH), α-ketoglutarate, NADH and NAD^+ were from Sigma Chemical Company. […] The nicotinamidase PNC1 was prepared as described by Denu and colleagues (Smith et al. (2009) Anal Biochem 394, 101-109). Our collection of approximately 5,000 SIRT1 activators was screened using the BioTrove mass spectrometry system, as previously described (Milne et al. (2007) Nature 450, 712-716). […] Compounds were present at 10 μM, and the assays were conducted in a pH 7.4 buffer containing 150 mM Tris, 5 mM DTT, 1% DMSO, and 0.025% BSA. To determine the interaction of STACs with SIRT1 two kinetic methods were employed. […] (2007) Nature 450, 712-716). The other, used with peptides of general structure […], used a continuous, enzyme-coupled method reported previously (Smith et al. (2009) Anal Biochem 394, 101-109), in which the SRT1 product nicotinamide is first converted into nicotinic acid and ammonia by the action of PNC1, and the ammonia then used by GDH to convert α-ketoglutarate into glutamate. This reaction occurs with oxidation of NADH to NAD^+ which is accompanied by a change in absorbance at 340 nm (Δε340=-6,200 M^-1 cm^-1). Activator titrations were plotted as relative velocity (i.e., the ratio of vx, velocity in the presence of activator X, to vo, velocity in the absence of activator) vs. [X]o, initial concentration of activator, and fit by nonlinear least-squares to the mechanism-independent expression for enzyme activation of […] the maximum relative velocity (i.e., vx/vo at infinite [X]o) and EC50 is the activator concentration at which vx/vo=(RVmax-1)/2. EC50 is a function of the kinetic mechanisms of both catalysis and activation, and the concentrations of substrates.

[2] = molecular target: T1, SIRT1; assay: Mass spectrometry based SIRT1 activation assay (TAMRA/5TMR-labeled 20mer peptide); settings: for Emax: 25 min, percent maximum fold activation of SIRT1, read-out: % FOLD ACT.; for EC1.5 uM: concentration that results in 150% activation of SIRT1
Text: A mass spectrometry based assay was used to identify modulators of SIRTI activity. The mass spectrometry based assay utilizes a peptide having 20 amino acid residues as follows: Ac-EE-K(biotin)-GQSTSSHSK(Ac)NleSTEG-K(5TMR)-EE-NH2 (SEQ ID NO: 1) wherein K(Ac) is an acetylated lysine residue and Nle is a norleucine. The peptide is labeled with the fluorophore 5TMR (excitation 540 nrnIemission 580 nm) at the C-terminus. The sequence of the peptide substrate is based on p53 with several modifications. In addition, the methionine residue naturally present in the sequence was replaced with the norleucine because the methionine may be susceptible to oxidation during synthesis and purification.
The mass spectrometry assay is conducted as follows: 0.5 J-1M peptide substrate and 120 μM βNAD^+ is incubated with 10 nM SIRT1 for 25 minutes at 25° C. in a reaction buffer (50 mM Tris-acetate pH 8, 137 mM NaCl, 2.7 mM KCl, 1 mM MgClz, 5 mM DTT, 0.05% BSA). Test compounds may be added to the reaction as described above. The SirTI gene is cloned into a T7-promoter containing vector and transformed into BL21 (DE3). After the 25 minute incubation with SIRT1, 10 μL of 10% formic acid is added to stop the reaction. Reactions are sealed and frozen for later mass spec analysis. Determination of the mass of the substrate peptide allows for precise determination of the degree of acetylation (i.e. starting material) as compared to deacetylated peptide (product).
A control for inhibition of sirtuin activity is conducted by adding 1 μL of 500 mM nicotinamide as a negative control at the start of the reaction (e.g., permits determination of maximum sirtuin inhibition). A control for activation of sirtuin activity is conducted using 10 nM of sirtuin protein, with 1 μL of DMSO in place of compound, to determine the amount of deacetylation of the substrate at a given timepoint within the linear range of the assay. This timepoint is the same as that used for test compounds and, within the linear range, the endpoint represents a change in velocity.
For the above assay, SIRTI protein was expressed and purified as follows. The SirT1 gene was cloned into a T7-promoter containing vector and transformed into BL21(DE3). The protein was expressed by induction with 1 mM IPTG as an N-terminal His-tag fusion protein at 18° C. overnight and harvested at 30,000×g. Cells were lysed with lysozyme in lysis buffer (50 mM Tris-HCl, 2 mM Tris[2-carboxyethyl]phosphine (TCEP), 10 μM ZnCl2, 200 mM NaCl) and further treated with sonication for 10 min for complete lysis. The protein was purified over a Ni-NTA column (Amersham) and fractions containing pure protein were pooled, concentrated and run over a sizing column (Sephadex S200 26/60 global). The peak containing soluble protein was collected and run on an Ion-exchange column (MonoQ). Gradient elution (200 mM-500 mM NaCl) yielded pure 20 protein. This protein was concentrated and dialyzed against dialysis buffer (20 mM TrisHCl, 2 mM TCEP) overnight. The protein was aliquoted and frozen at −80° C. until further use.
Sirtuin modulating compounds that activated SIRT1 were identified using the assay described above and are shown below in Table 4. The EC1.5 values represent the concentration of test compounds that result in 150% activation of SIRT1. The EC1.5 values for the activating compounds are represented by A (EC1.5≦1 μM), B (EC1.5>1 μM). The percent maximum fold activation is represented by A (Fold activation ≧200%) or B (Fold Activation <200%).

[3] = molecular target: T1, SIRT1; assay: Steady-state kinetic parameters for SIRT1 substrates (PNC1-GDH-coupled assay); parameters: kc/K1: unit not given here; settings: 25° C., pH 7.5, [NAD+]o = 2 mM, [SIRT1]o 50-1,000 nM
Procedure: All peptides were prepared by BioPeptide (San Diego, Calif.) and shown to be at least 95% pure by analytical HPLC analysis. Bovine glutamate dehydrogenase (GDH), α-ketoglutarate, NADH and NAD^+ were from Sigma Chemical Company. Full-length, human SIRT1 and the truncated version used for biophysical studies SIRT1(183-664) were prepared as described previously, and shown to have equivalent kinetic properties (Milne et al. (2007) Nature 450, 712-716). The nicotinamidase PNC1 was prepared as described by Denu and colleagues (Smith et al. (2009) Anal Biochem 394, 101-109).
To determine the interaction of STACs with SIRT1 two kinetic methods were employed. One, which was used for TAMRA-peptide, desTAMRA-peptide, des(biotin,TAMRA)-peptide, and p53-20 mer, used a previously described mass spectroscopic method for detection of peptide reaction products (Milne et al. (2007) Nature 450, 712-716). The other, used with peptides of general structure Ac-Arg-His-Lys-Lys^Ac-X, used a continuous, enzyme-coupled method reported previously (Smith et al. (2009) Anal Biochem 394, 101-109), in which the SRT1 product nicotinamide is first converted into nicotinic acid and ammonia by the action of PNC1, and the ammonia then used by GDH to convert α-ketoglutarate into glutamate. This reaction occurs with oxidation of NADH to NAD^+ which is accompanied by a change in absorbance at 340 nm (Δε340=−6,200 M^−1 cm^−1).
The kinetic experiments used to characterize activators were run on a Perkin Elmer Lambda 25 spectrophotometer equipped with a water-jacketed, eight-cell changer maintained at 25° C. In a typical kinetic experiment, all components of the reaction solution except SIRT1 were added to a 1 mL cuvette and allowed to reach thermal equilibrium. Final concentrations of the coupling system components were: 1 μM PNC1, 0.23 mM NADH, 3.4 mM α-ketoglutarate, and 20 U/mL bovine GDH. This solution also contained peptide substrate, NAD^.0., and activator, at concentrations indicated in the text. The final DMSO concentration was kept constant at 1%, and the buffer used in these experiments was 50 mM HEPES, 150 mM NaCl, pH 7.5. While the system was reaching thermal equilibrium, the absorbance was monitored to provide an accurate estimate of the background rate, which was subtracted from the reaction rate after the addition of SIRT1.
The parameters reported in this table were all determined using the PNC1-GDH-coupled assay. Kinetic parameters for the four 20 mers were also estimated using the mass spectroscopy-based assay first described by Milne et al. ((2007) Nature 450, 712-716) and agree with those reported in Table 3.

## CC(C)Cc1nc(NC2CCNCC2)cc(C(=O)Nc2ccccc2-c2nc3cc(COC4CCNCC4)cnc3s2)n1 [Compound 11, 2-isobutyl-6-(piperidin-4-ylamino)-N-(2-(6-((piperidin-4-yloxy)methyl)thiazolo[5,4-b]pyridin-2-yl)phenyl)pyrimidine-4-carboxamide]
[1]
  Effect on the deacetylation of des(biotin,TAMRA)-peptide: none activate
  RVmax for activation of the deacetylation of desTAMRA-peptide: ~2.3
  EC50: ~2000 nM and 2200 nM
  Ki,app for inhibition of the deacetylation of p53-20 mer: inhibit
  Ki: 10000 ± 1000 nM
[1]; listed as 23
  RVmax for activation of the deacetylation of desTAMRA-peptide: 2.8±0.2
[2]
  Emax: ≥ 200%
  EC1.5 uM: A (EC1.5≦1 μM)

## CCCCc1nc(NCCNC)cc(C(=O)Nc2ccccc2-c2nc3cc(COC4CCNCC4)cnc3s2)n1 [Compound 12, 2-butyl-6-(2-(methylamino)ethylamino)-N-(2-(6-((piperidin-4-yloxy)methyl)thiazolo[5,4-b]pyridin-2-yl)phenyl)pyrimidine-4-carboxamide]
[1]
  Effect on the deacetylation of des(biotin,TAMRA)-peptide: none activate
  RVmax for activation of the deacetylation of desTAMRA-peptide: ~2.3
  EC50: ~2000 nM and 1500 nM
  Ki,app for inhibition of the deacetylation of p53-20 mer: inhibit
  Ki: 9000 ± 3000 nM
[1]; listed as 24
  RVmax for activation of the deacetylation of desTAMRA-peptide: 2.1 ± 0.1
[2]
  Emax: ≥ 200%
  EC1.5 uM: A (EC1.5≦1 μM)

## CC(=O)NCCCC[C@H](NC(=O)[C@H](CCCCN)NC(=O)[C@H](Cc1c[nH]cn1)NC(=O)[C@H](CCCNC(=N)N)NC(C)=O)C(N)=O [RHKK^Ac, Ac-Arg-His-Lys-Lys^Ac-NH2] (Ac-RHKK(Ac)-NH2)
[3]
  kc: 0.14 s⁻¹
  kc/K1: 6.0

## CC(=O)NCCCC[C@H](NC(=O)[C@H](CCCCN)NC(=O)[C@H](Cc1c[nH]cn1)NC(=O)[C@H](CCCNC(=N)N)NC(C)=O)C(=O)Nc1ccc2c(C)cc(=O)oc2c1 [RHKK^Ac-AMC, Ac-Arg-His-Lys-Lys^Ac-AMC] (Ac-RHKK(Ac)-{AMC})
[3]
  kc: 0.091 s⁻¹
  kc/K1: 0.8

## CC(=O)NCCCC[C@H](NC(=O)[C@H](CCCCN)NC(=O)[C@H](Cc1c[nH]cn1)NC(=O)[C@H](CCCNC(=N)N)NC(C)=O)C(=O)N[C@@H](C)C(N)=O [RHKK^AcA, Ac-Arg-His-Lys-Lys^Ac-Ala] (Ac-RHKK(Ac)A-NH2)
[3]
  kc: 0.15 s⁻¹
  kc/K1: 12

## CC(=O)NCCCC[C@H](NC(=O)[C@H](CCCCN)NC(=O)[C@H](Cc1c[nH]cn1)NC(=O)[C@H](CCCNC(=N)N)NC(C)=O)C(=O)N[C@@H](Cc1ccccc1)C(N)=O [RHKK^AcF, Ac-Arg-His-Lys-Lys^Ac-Phe-NH2] (Ac-RHKK(Ac)F-NH2)
[3]
  kc: 0.16 s⁻¹
  kc/K1: 23

## CC(=O)NCCCC[C@H](NC(=O)[C@H](CCCCN)NC(=O)[C@H](Cc1c[nH]cn1)NC(=O)[C@H](CCCNC(=N)N)NC(C)=O)C(=O)N[C@@H](Cc1c[nH]c2ccccc12)C(N)=O [RHKK^AcW, Ac-Arg-His-Lys-Lys^Ac-Trp-NH2] (Ac-RHKK(Ac)W-NH2)
[3]
  kc: 0.19 s⁻¹
  kc/K1: 48
